According to US6984659B2, “2-pyrrolidinone derivatives substituted at position 4 for reducing the extracellular glutamate level” (priority 1997, dated 2006):
Several values for one entry are separate records, joined by “and”; a condition that tells them apart may be missing. Equal values may be shown once.

How the values were obtained:
[1] = system: electrically evoked release of [^3H]-NA; test: electrically evoked release of [^3H]-NA from rat brain slices; assay type: cell-based; settings: quasi-physiological release
Description: (§1) Note that the deviations indicate confidence intervals (CI95), not standard errors. In this model, GBP and its lactam seem equipotent. GBP and GBP-L are ineffective on the quasi-physiological, electrically evoked release of [^3H]-NA from both rat and human brain slices (not shown).

[2] = system: Mice transgenic for exon 1 of the human HD gene (line R 6/2); test: mouse model of Huntington's disease, walking on a balance beam; assay type: in vivo
Description: (§2) Mice transgenic for exon 1 of the human HD gene (line R 6/2), carrying CAGn=115-156 expansions, develop pronounced neuronal intranuclear inclusions, containing the proteins huntington and ubiquitin prior to the characteristic neurological phenotype with bradykinesia and seizures corresponding to the juvenile type of HD (Davies et al. 1997). The life time of these mice is up to 17 weeks. It was investigated whether gabapentin (GBP) and its derivative gabapentin-lactam (GBP-L, Jehle et al. 2000), may exert neuroprotective effects by using a battery of behavioral tests selected to measure motor aspects of fore-and hindlimb coordination and balance. In a first series of experiments mice were treated with GBP-L (100 mg/kg*day, 8 mice) and vehicle only (B mice) from the 6th week of their life until death using Alzet pumps implanted subcutaneously and delivering the test compounds systemically and continuously for up to four weeks. Empty Alzet pumps were repeatedly replaced. Animals were tested twice weekly by walking on a balance beam (width: 5 and 14 mm, Carter et al. 1999) up to week 15.5. A second series of experiments involved mice again treated with GBP-L (100 mg/kg*clay, 7 mice) and mice treated with GBP (100 mg/kg*day, 8 mice) from the 6th week of their life until death with week 17 being the maximum endpoint. In addition, immunohistochemical studies, using a monoclonal mouse antibody raised against ubiquitin, were done to analyse areas of ubiquitinated nuclear inclusions in three brain regions (hippocampus, neocortex and striatum) in a blinded fashion in order to compare mice treated with GBP-L or GBP.
This effect (E), as measured by the time necessary to pass the balance beam, was evaluated in each single mouse according to the function E=be^a time, yielding individual graphs with parameter estimates for a and b. The area under the curve, representing the motor ability of an individual mouse, was weighted by the life of this mouse. For instance, the area under the curve of a mouse which died at week 12.5 was divided by the ratio 12.5/15.5 in order to allow for possibly different life times of the mice.
Note that the observation period of the second series of experiments was 17 instead of 15.5 weeks only in the first set. Accordingly, the weighting by the life time now used the divisor 17 Instead of 15.5.

[3] = system: neuronal intranuclear inclusions; test: mouse model of Huntington's disease, immunohistochemistry of ubiquitinated neuronal intranuclear inclusions; assay type: in vivo; settings: for mean hippocampal areas of neuronal intranuclear inclusions / mean neocortical areas of neuronal intranuclear inclusions / mean striatal areas of neuronal intranuclear inclusions: per individual mouse, 100 mg/kg*day, frozen brain sections, 100 mg/kg
Description: as §2
Three mice per group were evaluated. The mean regional area of neuronal intranuclear inclusions was calculated (μm^2) for each mouse. These means were compared between regions and between treatment groups.

[4] = system: electrically evoked release of [^3H]-NA; test: electrically evoked release of [^3H]-NA from human brain slices; assay type: cell-based; settings: quasi-physiological release
Description: as §1

[5] = system: ischemia-induced [^3H]-Glu release; test: in vitro ischemia model: ischemia-induced [^3H]-Glu release from [^3H]-Gln-loaded hippocampal slices; assay type: cell-based, rat
Description: Rat hippocampus slices 350 μm thick were incubated in 3 ml of medium at 37° C. for 60 minutes. The medium contained 2 μM [^3H]-Gln to label the endogenous Gln pool. The slices then synthesized Glu. The slices were washed and then exposed to superfusion with a buffer for 50 minutes. At 5-minute intervals, [^3H]-Glu was extracted by anion exchange chromatography from a total of 15 superfusion samples and was measured by liquid scintillation counting. The fractional rates of [^3H]-Glu release were calculated from the [^3H]-Glu extracted from the superfusion samples and from the tissue slices after the superfusion.
The model of endogenously produced [^3H]-Glu was likewise used to generate ischemic conditions in vitro. To make a slice “quasi ischemic”, oxygen and glucose were replaced by nitrogen and sucrose during the superfusion. Sucrose was used in place of […] glucose in order to maintain the osmolarity of the superfusion fluid. It is known that sucrose cannot be cleaved in vitro to glucose and fructose. Unlike the tests in which the [^3H]-Glu release was induced electrically, and in order to simulate an ischemia as well as possible, the [^3H]-Glu release was carried out during the incubation and superfusion at 37° C.
Slices of 350 μm thickness were incubated at 37° C. for 60 min in 3 ml medium containing 2 μM [^3H]-Gln in order to label endogenous Gln pools. These slices subsequently were synthesizing Glu. The slices were washed and then superfused for 50 min with buffer. [^3H]-Glu was extracted from 15 5-min-superfusion samples and from the slices by anion-exchange chromatography and measured by liquid scintillation counting. Fractional rates of [^3H]-Glu release were calculated from extracted [^3H]-Glu in the superfusion samples and in the tissue slices obtained after superfusion.
To reproduce in vitro ischemic conditions the model of endogenously formed [^3H]-Glu was also used. To make a slice “quasi-ischemic”, oxygen was replaced by nitrogen and glucose was replaced by sucrose during superfusion. Sucrose was used instead of glucose in order to maintain the osmolarity of the superfusion fluid without being cleaved into glucose and fructose in vitro. At variance to the experiments on electrically evoked [^3H]-Glu release and in order to mimic ischemia as close as possible the experiments on ischemia-induced [^3H]-Glu release were performed at 37° C. throughout incubation and superfusion.
To assess the potency of glibenclamide concentration-inhibition curves of GBP-L on ischemia-induced [^3H]-Glu efflux were obtained in the absence and presence of 0.1 μM glibenclamide (see Jehle et al. 2000).

[6] = system: potassium-evoked release of [^3H]-noradrenaline; test: potassium-evoked release of [^3H]-noradrenaline from rat neocortex slices (superfusion); assay type: cell-based; settings: rat neocortical slices
Description: (§3) The effects of GBP and GBP-L were compared by a very similar approach using rat and human neocortical slices.
(§4) Note that the deviations indicate confidence intervals (CI95), not standard errors.

[7] = system: mitochondrial KATP channels; test: mitochondrial KATP channels, depression of the mitochondrial membrane potential; assay type: biochemical
Description: The mode of action of GBP-L and GBP was tested with regard to mitochondrial KATP channels (Szewczyk and Marban 1999). […] Effects of GBP-L on the mitochondrial membrane potential were already seen at 5 μM. […] Thus, the neuroprotective effect of GBP-L seems to be mediated predominantly through mitochondrial KATP channels.

[8] = system: potassium-evoked release of [^3H]-noradrenaline; test: potassium-evoked release of [^3H]-noradrenaline from human neocortical slices (superfusion); assay type: cell-based; settings: human neocortex slices
Description: as §3, §4

[9] = second series, 100 mg/kg*day, observation period 17 weeks
[10] = O2 replaced by N2, glucose by sucrose, 37° C., 3 μM PDC

NCC1(CC(=O)O)CCCCC1 [GBP, gabapentin, reference compound]
electrically evoked release of [^3H]-NA (in words) [1]: ineffective | mean weighted area representing the motor ability on the 5 mm beam [2, 9]: 77.33 | mean weighted area representing the motor ability on the 14 mm beam [2, 9]: 65.71 | mean hippocampal areas of neuronal intranuclear inclusions [3]: 8.78 μm^2 and 8.93 μm^2 and 8.26 μm^2 | mean neocortical areas of neuronal intranuclear inclusions [3]: 5.91 μm^2 and 5.94 μm^2 and 9.60 μm^2 | mean striatal areas of neuronal intranuclear inclusions [3]: 6.43 μm^2 and 7.27 μm^2 and 3.84 μm^2 | electrically evoked release of [^3H]-NA (in words) [4]: ineffective | diminution of ischemia-induced [^3H]-Glu efflux [5]: 35.5% | K^+-evoked [^3H]-NA release (in words) [6]: inhibited similarly | activity at mitochondrial KATP channels (in words) [7]: hardly effective | K^+-evoked [^3H]-NA release (in words) [8]: inhibited similarly

O=C1CC2(CCCCC2)CN1 [GBP-L, 8-azaspiro[5,4]decan-9-one]
electrically evoked release of [^3H]-NA (in words) [1]: ineffective | motor abilities compared to vehicle animals (in words) ([2]; first series, 100 mg/kg*day): markedly and significantly improved | mean weighted area representing the motor ability on the 5 mm beam ([2]; first series, 100 mg/kg*day s.c. Alzet pumps from 6th week, up to week 15.5, vehicle 44.60): 26.64 | mean weighted area representing the motor ability on the 14 mm beam ([2]; first series, 100 mg/kg*day, up to week 15.5, vehicle 31.54): 17.16 | mean weighted area representing the motor ability on the 5 mm beam [2, 9]: 43.75 | mean weighted area representing the motor ability on the 14 mm beam [2, 9]: 30.46 | mean hippocampal areas of neuronal intranuclear inclusions [3]: 4.47 μm^2 and 4.01 μm^2 and 3.61 μm^2 | mean neocortical areas of neuronal intranuclear inclusions [3]: 3.70 μm^2 and 2.96 μm^2 and 2.65 μm^2 | mean striatal areas of neuronal intranuclear inclusions [3]: 3.52 μm^2 and 4.20 μm^2 and 3.83 μm^2 | area of neuronal intranuclear inclusions in hippocampus, striatum and neocortex compared to GBP mice (in words) ([3]; three mice per group): markedly and significantly reduced | electrically evoked release of [^3H]-NA (in words) [4]: ineffective | ischemia-induced [^3H]-Glu output (in words) [5, 10]: reduces the neurotoxic [^3H]-Glu output significantly | reduction of ischemia-induced [^3H]-Glu release (area from t=15 min) [5, 10]: 42.5% | K^+-evoked [^3H]-NA release (in words) [6]: inhibited similarly | activity at mitochondrial KATP channels (in words) [7]: potent activator | concentration at which effects on the mitochondrial membrane potential were already seen [7]: 5 µM | EC50 ([7]; read-out: half-maximal depression of the mitochondrial membrane potential): 85 µM | K^+-evoked [^3H]-NA release (in words) [8]: inhibited similarly
